Source: patent US8853206B2, “Triazolium salts as PAR1 inhibitors, production thereof, and use as medicaments” (Sanofi, priority 2008, dated 2014)
Where a name gives a salt, the structure may show the parent alone.

Columns and labels:
PAR1 [1] = biological target: T1, PAR1 (Homo sapiens (Human), UniProt P25116); experiment: Inhibition of PAR1-mediated platelet aggregation induced by TRAP; assay type: cell-based; details: TRAP-induced aggregation of washed platelets from healthy volunteer donors, 96-well format
T1 sequence (P25116 22-425): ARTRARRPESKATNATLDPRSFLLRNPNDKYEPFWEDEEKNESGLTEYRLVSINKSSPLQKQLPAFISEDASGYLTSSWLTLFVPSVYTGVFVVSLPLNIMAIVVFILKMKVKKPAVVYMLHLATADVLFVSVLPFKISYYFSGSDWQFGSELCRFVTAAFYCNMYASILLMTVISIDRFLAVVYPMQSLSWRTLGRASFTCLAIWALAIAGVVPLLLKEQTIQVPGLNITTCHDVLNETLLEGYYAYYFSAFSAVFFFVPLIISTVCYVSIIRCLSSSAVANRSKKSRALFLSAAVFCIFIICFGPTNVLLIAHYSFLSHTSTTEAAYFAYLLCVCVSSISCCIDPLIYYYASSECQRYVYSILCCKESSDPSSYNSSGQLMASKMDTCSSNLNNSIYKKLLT
Experimental: PAR1 Determination Method: Inhibition of PAR1-Mediated Platelet Aggregation The pharmacological testing of the substances took place in platelet aggregation induced by TRAP (thrombin receptor-activating peptide) in 96-well format. For this purpose, blood was taken from healthy volunteer donors in 20 ml syringes containing 2 ml of 3.13% sodium citrate solution. After centrifugation at 150×g for 20 minutes, the platelet-rich plasma (PRP) was separated off and mixed with 1 μl of PGE1 solution (500 μg/ml in ethanol)/ml of PRP. Incubation at RT for 5 minutes was followed by centrifugation at 120×g for 15 minutes to remove the leukocytes. The leukocyte-free PRP was transferred in 5 ml portions into 15 ml PP tubes and centrifuged at 360×g for 15 minutes in order to pellet the platelets. The plasma was then decanted off and the platelet sediment from 5 ml of PRP was resuspended in 1 ml of Tyrode's (120 mM NaCl, 2.6 mM KCl, 12 mM NaHCO3, 0.39 mM NaH2PO4×H2O, 10 mM HEPES, 0.35% BSA, 5.5 mM glucose, pH 7.4) and adjusted with Tyrode's to a platelet count of 3×10^5/microliter (4). 13 ml of this cell suspension were then mixed with 866 μL of 10 mM CaCl2 solution, and 120 μL thereof were pipetted into each well of a 96-well plate containing 15 μL of the substance to be tested. After incubation at RT in the dark for 30 minutes, 15 μL of a TRAP solution (70-100 μM) were added as agonist, and kinetics were recorded at 650 nm in a SpectraMax 340 at 37° C. for 20 minutes while shaking. The areas under the curves of negative control (Tyrode's/DMSO) and positive control (15 μl of agonist/DMSO) were calculated and the difference was fixed as the 100% value. The substances to be tested were pipetted as serial dilutions in duplicate determination, the AUC was likewise determined for each substance concentration, and the % inhibition of the AUC compared with the control was calculated. On the basis of the % inhibition, the IC50 was calculated by nonlinear regression analysis according to the 4-parameter equation.

PAR1 [2] = biological target: T1, PAR1; experiment: PAR1 binding test (radioligand displacement, membrane preparation); details: human PAR1 expressed in High Five insect cell membranes; radioligand 20 nM; read-out: Inhibition of binding IC50
Experimental: The synthesized substances were examined in a PAR1 binding test. This tested whether the substances can inhibit the binding of a radioactively labeled PAR1 agonist known from the literature at the PAR1 receptor (Ho-Sam Ahn, Mol Pharm, 51:350-356, 1997).
The human PAR1 receptor was expressed transiently in High Five insect cells. From these cells, after 48 hours, a membrane preparation was produced by standard methods, aliquoted into 10 mM Tris-HCl; 0.3 mM EDTA; 1 mM EGTA; 250 mM sucrose pH 7.5, and stored at −80° C.
The substances were preincubated with the membrane at RT for 15 minutes, then the radioligand (ALA-(para-F-Phe)-Arg-ChA-homoArg-(3,4-^3H-Tyr)-NH2; approx. 40 Ci/mMol) was added. The end concentration of the radioligand in the test buffer (50 mM Tris-HCl; 10 mM MgCl2; 1 mM EGTA; 0.1% BSA; 2% DMSO) was 20 nM, that of the membrane 1 mg/ml. After an incubation time of 60 minutes, 25 μL of the mixture were transferred to a 96-well MultiScreenHTS FB microtiter filtration plate (from Millipore), which had been pretreated beforehand with a 0.75% aqueous polyethyleneimine solution for 5 hours at RT. Thereafter, with vacuum extraction, each well was washed four times with 300 μL of buffer (50 mM Tris-HCl; 10 mM MgCl2; 1 mM EGTA). The plate was then dried overnight, 100 μl of scintillator per well were added, and the plate was analyzed after 6 hours in a Wallac MicroBeta (from PerkinElmer) liquid scintillation counter. The nonspecific binding was determined in the presence of 100 μM SCH79797 (PAR-1 antagonist; from Tocris, Cat. No. 1592) and subtracted from all measurements. The 100% value used was a control without inhibitor. The % inhibition values of a substance dilution series were used to calculate the IC50 with the aid of nonlinear regression analysis according to the 4-parameter equation.

Structure (SMILES)	IC50 (PAR1 [1]) [nM]	IC50 (PAR1 [2]) [nM]
CCOc1ccc2n(n1)c(N)n[n+]2CC(=O)c1cc(NC(C)=O)cc(S(F)(F)(F)(F)F)c1 [Example 1, 1-{2-[3-Acetylamino-5-(pentafluorosulfanyl)phenyl]-2-oxoethyl}-3-amino-6-ethoxy-[1,2,4]triazolo[4,3-b]pyridazin-1-ium trifluoroacetate]	< 14	
CC(C)(C)c1cc(C(=O)C[n+]2nc(N)n3ccccc32)cc(C(C)(C)C)c1O [Example 3, 3-Amino-1-[2-(3,5-di-tert-butyl-4-hydroxyphenyl)-2-oxoethyl]-[1,2,4]triazolo[4,3-a]pyridin-1-ium trifluoroacetate]	1080	
COc1c(N2CCOCC2)cc(C(=O)C[n+]2nc(N)n3cc(C(F)(F)F)ccc32)cc1C(C)(C)C [Example 4, 3-Amino-1-[2-(3-tert-butyl-4-methoxy-5-morpholin-4-ylphenyl)-2-oxoethyl]-6-trifluoromethyl-[1,2,4]triazolo[4,3-a]pyridin-1-ium trifluoroacetate]	126	
CCOC(=O)c1cn2c(N)n[n+](CC(=O)c3cc(N4CCOCC4)c(OC)c(C(C)(C)C)c3)c2cc1OCC [Example 8, 3-Amino-1-[2-(3-tert-butyl-4-methoxy-5-morpholin-4-yl-phenyl)-2-oxoethyl]-7-ethoxy-6-ethoxycarbonyl-[1,2,4]triazolo[4,3-a]pyridin-1-ium trifluoroacetate]	4400	
CCC(CC)Oc1ccc2n(n1)c(N)n[n+]2CC(=O)c1cc(OC)cc(S(F)(F)(F)(F)F)c1 [Example 26, 3-Amino-6-(1-ethylpropoxy)-1-{2-[3-methoxy-5-(pentafluorosulfanyl)phe-nyl]-2-oxoethyl}-[1,2,4]triazolo[4,3-b]pyridazin-1-ium trifluoroacetate]	5	
CCOCc1cc(C(=O)C[n+]2nc(N)n3nc(OC(CC)CC)ccc32)cc(C(C)(C)C)c1 [Example 27, 3-Amino-1-[2-(3-tert-butyl-5-ethoxymethylphenyl)-2-oxoethyl]-6-(1-ethylpropoxy)-[1,2,4]triazolo[4,3-b]pyridazin-1-ium chloride]		152
CCOc1cc(C(=O)C[n+]2nc(N)n3nc(OC(CC)CC)ccc32)cc(C(C)(C)C)c1OCC [Example 29, 3-Amino-1-[2-(3-tert-butyl-4,5-diethoxyphenyl)-2-oxoethyl]-6-(1-ethylpropoxy)-[1,2,4]triazolo[4,3-b]pyridazin-1-ium chloride]		136
CCOc1cc(C(=O)C[n+]2nc(N)n3nc(OC(CC)CC)ccc32)cc(C(C)(C)C)c1 [Example 32, 3-Amino-1-[2-(3-tert-butyl-5-ethoxyphenyl)-2-oxoethyl]-6-(1-ethylpropoxy)-[1,2,4]triazolo[4,3-b]pyridazin-1-ium chloride]	6	
CCC(CC)Oc1ccc2n(n1)c(N)n[n+]2CC(=O)c1cc(OCC2CC2)cc(C(C)(C)C)c1 [Example 35, 3-Amino-1-[2-(3-tert-butyl-5-cyclopropylmethoxyphen-yl)-2-oxoethyl]-6-(1-ethylpropoxy)-[1,2,4]triazolo[4,3-b]pyridazin-1-ium chloride]		132
CCC(CC)Oc1ccc2n(n1)c(N)n[n+]2CC(=O)c1cc(OC)c(OC)c(OCC2CCCCC2)c1 [Example 38, 3-Amino-1-[2-(3-cyclohexylmethoxy-4,5-dimethoxyphenyl)-2-oxoethyl]-6-(1-ethylpropoxy)-[1,2,4]triazolo[4,3-b]pyridazin-1-ium chloride]	240	
CCCCOc1ccc2n(n1)c(N)n[n+]2CC(=O)c1cc(COC)cc(C(C)(C)C)c1 [Example 39, 3-Amino-6-butoxy-1-[2-(3-tert-butyl-5-methoxymethylphenyl)-2-oxoethyl]-[1,2,4]triazolo[4,3-b]pyridazin-1-ium chloride]	37	
CCC(CC)Oc1ccc2n(n1)c(N)n[n+]2CC(=O)c1cc(Cl)cc(OC)c1 [Example 40, 3-Amino-1-[2-(3-chloro-5-methoxyphenyl)-2-oxoethyl]-6-(1-ethylpropoxy)-[1,2,4]triazolo[4,3-b]pyridazin-1-ium chloride]		601
CCC(CC)Oc1ccc2n(n1)c(N)n[n+]2CC(=O)c1cc(OC)cc(C(C)C)c1 [Example 46, 3-Amino-6-(1-ethylpropoxy)-1-]2-(3-isopropyl-5-methoxyphenyl)-2-oxoethyl]-[1,2,4]triazolo[4,3-b]pyridazin-1-ium chloride]		114
CCC(CC)Oc1ccc2n(n1)c(N)n[n+]2CC(=O)c1cc(OC)cc(OCC2CCCCC2)c1 [Example 47, 3-Amino-1-[2-(3-cyclohexylmethoxy-5-methoxyphenyl)-2-oxoethyl]-6-(1-ethylpropoxy)-[1,2,4]triazolo[4,3-b]pyridazin-1-ium chloride]		10000
CCC(CC)Oc1ccc2n(n1)c(N)n[n+]2CC(=O)c1cc(OCCOC)cc(C(C)(C)C)c1 [Example 54, 3-Amino-1-{2-[3-tert-butyl-5-(2-methoxyethoxy)phenyl]-2-oxoethyl}-6-(1-ethylpropoxy)-[1,2,4]triazolo[4,3-b]pyridazin-1-ium chloride]		85
CCc1ccc2n(n1)c(N)n[n+]2CC(=O)c1cc(N2CCOCC2)c(OC)c(C(C)(C)C)c1 [Example 60, 3-Amino-1-[2-(3-tert-butyl-4-methoxy-5-morpholin-4-ylphenyl)-2-oxoethyl]-6-ethyl-[1,2,4]triazolo[4,3-b]pyridazin-1-ium trifluoroacetate]		2100
CCOc1nn2c(NC)n[n+](CC(=O)c3cc(N4CCOCC4)c(OC)c(C(C)(C)C)c3)c2c(C)c1C [Example 72, 1-[2-(3-tert-Butyl-4-methoxy-5-morpholin-4-ylphenyl)-2-oxoethyl]-6-ethoxy-7,8-dimethyl-3-methylamino-[1,2,4]triazolo[4,3-b]pyridazin-1-ium trifluoroacetate]		1700
CCC(CC)Oc1nn2c(N)n[n+](CC(=O)c3cc(N4CCOCC4)c(OC)c(C(C)(C)C)c3)c2cc1C1CC1 [Example 76, 3-Amino-1-[2-(3-tert-butyl-4-methoxy-5-morpholin-4-ylphenyl)-2-oxoethyl]-7-cyclopropyl-6-(1-ethylpropoxy)-[1,2,4]triazolo[4,3-b]pyridazin-1-ium chloride]		1400
CCOc1nn2c(N)n[n+](CC(=O)c3cc(OCCCO)c(OC)c(C(C)(C)C)c3)c2cc1CC [Example 82, 3-Amino-1-{2-[3-tert-butyl-5-(3-hydroxypropoxy)-4-methoxyphenyl]-2-oxoethyl}-6-ethoxy-7-ethyl-[1,2,4]triazolo[4,3-b]pyridazin-1-ium chloride]		8400
